# Measured values from patent US20140314676A1, “METHODS OF TREATMENT WITH DEFERIPRONE” (APOTEX TECHNOLOGIES INC., priority 2011, published 2014).
# Entries after “also recorded” stand apart in the source; their conditions may differ.
# What was measured:
# [1] = test system: porcine model of myocardial infarction; assay: Porcine model of myocardial infarction (90 min LAD occlusion, reperfusion), pilot study monitored by MRI; type: in vivo; conditions: for Ejection fraction (EF) / Vasodilatory dysfunction (remote myocardium T2) / Inflammation or edema (T2) / Ventricular volume (end-diastolic and end-systolic volumes): pigs N=2, oral 100 mg/kg daily; for Inflammation or edema (T2): infarct zone; for Ventricular volume (end-diastolic and end-systolic volumes): up to 4 weeks; for Hemorrhage (from T2* image): pigs N=2, oral pre-loading then 100 mg/kg daily, MRI day 2 to week 4
# Method: Post-infarct remodeling is a complex process with various pathophysiological changes occurring simultaneously (19) whose inter-dependence has not been completely understood in vivo. An initial study was performed to assess evolution of: 1) edema (T2); 2) hemorrhage (T2*); 3) cardiac function; 4) infarct/MVO size and 5) vasodilatory function in a porcine model of myocardial infarction. The left anterior descending artery (LAD) was occluded for 90 min followed by reperfusion; this model consistently produced anteroseptal transmural infarcts characterized by MVO. Pattern of progression of edema, hemorrhage and infarct/MVO was apparent on T2-, T2*-maps and contrast-enhanced (CE) images as shown in a representative animal (FIG. 1). Post-infarct LV remodeling was monitored by observing the cumulative time course of quantitative MRI parameters (FIG. 2). […] Vasodilator function (or perfusion reserve) was evaluated with T2-based Blood-oxygen-level-dependent (BOLD) imaging using a pharmacological vasodilator (FIG. 4). […] The failure of remote vasodilatory function to regain control levels in the chronic phase of AMI potentially served as a predictor of subsequent adverse LV remodeling. […] Importantly, the evolution of MRI parameters was well correlated with histological features, similar to patterns seen in humans (24); this justified using a large animal model, e.g., porcine, for translation to the clinic. Two papers based on this work were published in MRM (32, 76).
# Excess tissue iron accumulation can be lethal as free iron is toxic in nature. It has been speculated that iron chelation may be beneficial in acute coronary syndromes and that early treatment can limit ischemia-reperfusion injury and also reduce infarct size (83, 84). However, the role of iron chelation in hemorrhagic infarction has not yet been explored. In the present example, the cardioprotective properties of the iron chelating agent deferiprone (DFP) were explored in a porcine model of myocardial infarction. Deferiprone offered several advantages in that it is a very small molecule, both hydrophilic and lipophilic and highly membrane permeable; it can readily enter mitochondria and may access intracellular labile iron. In a pilot study, DFP was administered (orally) to pigs (N=2) a few hours before a 90 min LAD occlusion (pre-loading), and treatment was continued with a daily dose of 100 mg/kg (85). Animals were then monitored with a comprehensive MRI exam from day 2 to week 4. […] The result shown in FIG. 14 compared to FIG. 1 show the neutralizing capacity of DFP.
# [2] = test system: porcine model of myocardial infarction; assay: Hemorrhagic myocardial infarction in porcine model, remodeling monitored by CMR (Example 3); type: in vivo
# Method: A quantitative study was done to investigate the effect of the deferiprone (DFP) on the hemorrhagic byproducts in tissue in a porcine model of myocardial infarction, and to monitor remodeling by cardiovascular magnetic resonance (CMR).
# The study involved two groups of animals that were subjected to a 90 min balloon occlusion of the left anterior descending artery (LAD) followed by reperfusion—untreated (N=2) and DFP treated (N=2). DFP was administered (orally) a few hours (about 1-2 hours) before the procedure (pre-loading) and treatment was continued with a daily dose of 100 mg/kg. Imaging was performed on a 3T MRI scanner (MR 750, GE Healthcare) pre-AMI (healthy), day 2, week 1, week 2 and week 4 post-AMI. Edema was evaluated by T2 quantification using a T2-prepared spiral sequence and hemorrhage was identified by T2* using a multi-echo gradient-echo acquisition. Infarct assessment was performed by delayed hyperenhancement (DHE) using an IR-GRE sequence.
# [3] = test system: Langendorff heart preparation; conditions: constant deferiprone infusion of 50 μM, ex vivo; cited from earlier work
# porcine hearts [4] = assay: Artificially induced hemorrhage in porcine hearts by intracoronary injection of collagenase after 8 min ischemia; type: in vivo, Yorkshire pigs; conditions: for Epicardial and intramyocardial hemorrhage: sacrifice at 24 hrs
# Method: (§1) 21 Yorkshire pigs (19-31 kg) were included in the study and 7-9 ml phosphate-buffered solution containing collagenase was injected using an over-the-wire angioplasty balloon catheter that was advanced to mid LAD after 2nd diagonal branch; balloon inflation was maintained for 8 min (ischemia). Six doses (250, 600, 800, 1200, 1600, and 3200 mcg) of collagenase were administered in equally divided groups; there was no mortality attributable to collagenase infusion. Animals were sacrificed at 24 hrs and hearts were explanted for histological analysis. […] After establishing this model, a pilot study was initiated to artificially induce hemorrhage in one animal subjected to a 45 min LAD occlusion, which is inherently non-hemorrhagic. Collagenase was injected immediately after balloon deflation i.e. during reperfusion at an intermediate dose of 1000 mcg. […] This was unlike the untreated 45 min infarcts studied. Currently, the causality between hemorrhage and MVO is unknown. The blood spilt in the interstitium might have compressed the microvasculature that was already vulnerable due to the initial ischemic insult; in other words, hemorrhage may have created the MVO.
# porcine hearts [5] = assay: Collagenase injection during reperfusion after 45 min LAD occlusion, MRI at day 2; type: in vivo, pig; conditions: 1000 mcg during reperfusion, day 2 post-AMI, one animal
# Method: as §1
# [6] = 90 min LAD occlusion, listed as DFP, 100 mg/kg
# [7] = DFP treated N=2, 100 mg/kg daily
molecule,measurement,setting,value
Cc1c(O)c(=O)ccn1C [deferiprone],Ejection fraction (EF),[1]; 90 min LAD occlusion,reduced gradually
same,Vasodilatory dysfunction (remote myocardium T2),[1]; 90 min LAD occlusion,impaired vasodilatory function only at day 2
same,Inflammation or edema (T2),"[1]; 90 min LAD occlusion, 100 mg/kg",substantially subsided at week 4; also recorded: substantially subsided beyond week 2
same,Inflammation or edema (T2),[1]; [6],substantially reduced by week 4
same,Ventricular volume (end-diastolic and end-systolic volumes),[1]; 90 min LAD occlusion,Relatively unchanged
same,Ventricular volume (end-diastolic and end-systolic volumes),[1]; [6],relatively unchanged
same,Ejection fraction (EF),[1]; [6],gradually depressed by week 4
same,Vasodilatory dysfunction (remote myocardium T2),[1]; [6],observed only at day 2
same,Hemorrhage (from T2* image),[1]; 90 min LAD occlusion,"observed only on day 2 but resolved by week 1; also recorded: only observed on day 2, which later resolved"
same,Hemorrhage (from T2* image),"[1]; 90 min LAD occlusion, listed as DFP",observed only on day 2 and by week 1 it had completely resolved
same,Side effects,"[1]; pigs, oral 100 mg/kg daily, throughout the 4 weeks of observation",No side effects
same,Microvascular obstruction (MVO),"[1]; representative animal, 90 min LAD occlusion, seen on day 2",partially resolved by week 1
same,Ejection fraction (EF),[2]; [7],depressed by week 4
same,End-diastolic and end-systolic volumes,[2]; [7],relatively unchanged
same,Inflammation and edema (T2),[2]; [7],substantially reduced by week 4
same,Microvascular obstruction (MVO),"[2]; DFP treated N=2, 100 mg/kg daily, seen on day 2",partially resolved by week 1
same,Hemorrhage (as indicated by T2* image),"[2]; DFP treated N=2, oral pre-loading then 100 mg/kg daily, 90 min LAD occlusion, listed as DFP",observed only on day 2 and by week 1 it had completely resolved
same,Free radical activity,[3],reduction
collagenase,Mortality attributable to collagenase infusion,"porcine hearts [4]; 250-3200 mcg intracoronary, 21 pigs",no mortality
same,Epicardial and intramyocardial hemorrhage,porcine hearts [4]; 800-1600 mcg intracoronary,mild-moderate
same,Epicardial and intramyocardial hemorrhage,porcine hearts [4]; 3200 mcg intracoronary,severe
same,Infarction (histology),porcine hearts [4]; intracoronary collagenase after 8 min ischemia,No infarction
same,Dose resulting in hemorrhage on explanted hearts,"porcine hearts [4]; intracoronary, after 8 min ischemic episode",> 800 µg
same,Epicardial and intramyocardial hemorrhage,porcine hearts [4]; up to 600 mcg intracoronary,none or mild focal
same,Hemorrhage on T2*-weighted images,porcine hearts [5],Signal void
same,MVO on DHE images,porcine hearts [5],corresponded with an MVO
same,Hemorrhage on T2*-weighted images,porcine hearts [5]; listed as Collagenase,signal void
same,MVO on DHE images,porcine hearts [5]; listed as Collagenase,presence of MVO
